Paper PMC9090415, “Discovery of small molecule inhibitors of Plasmodium falciparum apicoplast DNA polymerase” (Journal of Enzyme Inhibition and Medicinal Chemistry, 2022)

Target: P. falciparum apicoplast DNA polymerase (Pf-apPOL) (Plasmodium falciparum, UniProt Q8ILY1)
Experiment: Fluorescence-based high-throughput DNA polymerase assay (molecular beacon), primary screen and dose-response;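 on % inhibition ApPOL 90': test concentration in µM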;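 on % inhibition apPOL 180': test concentration in µM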
Type: biochemical
Procedure, shortened: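 Single-point screening used 10 µM compound with 20 nM polymerase, 20 nM hairpin substrate and 6 µM dNTPs for 90 min at 25 °C. Confirmatory titrations (2.5–80 µM) followed fluorescence at three times, and IC50 was derived from a fit including a cooperativity term n.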

[1] = primary screen value by plate and well; 90 min, 10 µM
[2] = primary screen value of the 186 hits; unit not given; 90 min, 10 µM

P. falciparum apicoplast DNA polymerase (Pf-apPOL), sequence (Q8ILY1 entry or part of it): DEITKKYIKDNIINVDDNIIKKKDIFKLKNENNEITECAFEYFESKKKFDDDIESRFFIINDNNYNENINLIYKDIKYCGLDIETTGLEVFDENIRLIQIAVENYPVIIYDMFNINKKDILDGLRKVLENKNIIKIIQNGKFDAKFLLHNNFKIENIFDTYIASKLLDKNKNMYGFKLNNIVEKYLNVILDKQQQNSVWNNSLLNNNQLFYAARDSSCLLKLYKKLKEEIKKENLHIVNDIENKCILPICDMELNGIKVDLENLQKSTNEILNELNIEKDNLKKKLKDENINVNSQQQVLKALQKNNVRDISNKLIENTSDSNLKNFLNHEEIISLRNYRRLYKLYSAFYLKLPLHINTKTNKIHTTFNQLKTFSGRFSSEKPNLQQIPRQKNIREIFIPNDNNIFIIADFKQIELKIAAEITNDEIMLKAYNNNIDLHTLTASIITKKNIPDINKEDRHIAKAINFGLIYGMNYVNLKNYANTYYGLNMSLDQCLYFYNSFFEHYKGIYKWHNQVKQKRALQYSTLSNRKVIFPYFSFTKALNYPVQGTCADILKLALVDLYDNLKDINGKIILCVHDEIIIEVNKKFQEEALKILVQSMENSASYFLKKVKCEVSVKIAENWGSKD

O=C1C(=Cc2ccncc2)Oc2c1ccc1c2CN(Cc2ccc3c(c2)OCO3)CO1 [KU0199357]
% inhibition Apo pol 10' (DRC-1; 10'; concentration 2.5): -2.582%
% inhibition Apo pol 10' (DRC-1; 10'; concentration 5): 7.288%
% inhibition Apo pol 10' (DRC-1; 10'; concentration 10): 20.9046%
% inhibition Apo pol 10' (DRC-1; 10'; concentration 20): 43.4481%
% inhibition Apo pol 10' (DRC-1; 10'; concentration 40): 58.0959%
% inhibition Apo pol 10' (DRC-1; 10'; concentration 80): 67.6881%
% inhibition Apol 90' (DRC-1; 90'; concentration 2.5): 5.905%
% inhibition Apol 90' (DRC-1; 90'; concentration 5): 17.1592%
% inhibition Apol 90' (DRC-1; 90'; concentration 10): 34.0534%
% inhibition Apol 90' (DRC-1; 90'; concentration 20): 57.2301%
% inhibition Apol 90' (DRC-1; 90'; concentration 40): 66.3839%
% inhibition Apol 90' (DRC-1; 90'; concentration 80): 71.081%
% inhibition apPOL 180' (DRC-1; 180'; concentration 2.5): 18.2%
% inhibition apPOL 180' (DRC-1; 180'; concentration 5): 33.6281%
% inhibition apPOL 180' (DRC-1; 180'; concentration 10): 52.8401%
% inhibition apPOL 180' (DRC-1; 180'; concentration 20): 75.9569%
% inhibition apPOL 180' (DRC-1; 180'; concentration 40): 84.0502%
% inhibition apPOL 180' (DRC-1; 180'; concentration 80): 84.7923%
% inhibition Apo pol 5' (DRC-2; 5'; concentration 2.5): 6%
% inhibition Apo pol 5' (DRC-2; 5'; concentration 5): 15%
% inhibition Apo pol 5' (DRC-2; 5'; concentration 10): 35%
% inhibition Apo pol 5' (DRC-2; 5'; concentration 20): 37%
% inhibition Apo pol 5' (DRC-2; 5'; concentration 40): 46%
% inhibition Apo pol 5' (DRC-2; 5'; concentration 80): 40%
% inhibition Apol 40' (DRC-2; 40'; concentration 2.5): 1.87%
% inhibition Apol 40' (DRC-2; 40'; concentration 5): 3%
% inhibition Apol 40' (DRC-2; 40'; concentration 10): 31%
% inhibition Apol 40' (DRC-2; 40'; concentration 20): 32%
% inhibition Apol 40' (DRC-2; 40'; concentration 40): 39%
% inhibition Apol 40' (DRC-2; 40'; concentration 80): 34%
% inhibition ApPOL 90' (DRC-2; 90'; concentration 2.5): -1.19%
% inhibition ApPOL 90' (DRC-2; 90'; concentration 5): -9%
% inhibition ApPOL 90' (DRC-2; 90'; concentration 10): 26%
% inhibition ApPOL 90' (DRC-2; 90'; concentration 20): 27%
% inhibition ApPOL 90' (DRC-2; 90'; concentration 40): 36%
% inhibition ApPOL 90' (DRC-2; 90'; concentration 80): 34%
% inhibition apPOL 180' (DRC-2; 180'; concentration 2.5): -7%
% inhibition apPOL 180' (DRC-2; 180'; concentration 5): -87%
% inhibition apPOL 180' (DRC-2; 180'; concentration 10): 11%
% inhibition apPOL 180' (DRC-2; 180'; concentration 20): 13%
% inhibition apPOL 180' (DRC-2; 180'; concentration 40): 28%
% inhibition apPOL 180' (DRC-2; 180'; concentration 80): 35%
% inhibition Apo pol 5' (conc. 10; 5'; DRC-2): 35%
% inhibition Apol 40' (conc. 80; 40'; DRC-2): 34%
% inhibition ApPOL 90' (conc. 80; 90'; DRC-2): 34%
% inhibition apPOL 180' (conc. 80; 180'; DRC-2): 35%
DNA Pol [1]: 32
DNA Pol [2]: 32

COc1ccc(C=C2Oc3c(ccc4c3CN(Cc3ccco3)CO4)C2=O)c(OC)c1 [KU0199404]
% inhibition Apo pol 10' (DRC-1; concentration 2.5; 10'): 1.778%
% inhibition Apol 90' (DRC-1; concentration 2.5; 90'): 6.394%
% inhibition apPOL 180' (DRC-1; concentration 2.5; 180'): 14.4773%
% inhibition Apo pol 10' (DRC-1; concentration 5; 10'): 2.359%
% inhibition Apol 90' (DRC-1; concentration 5; 90'): 10.7843%
% inhibition apPOL 180' (DRC-1; concentration 5; 180'): 25.2477%
% inhibition Apo pol 10' (DRC-1; concentration 10; 10'): 17.8134%
% inhibition Apol 90' (DRC-1; concentration 10; 90'): 29.7292%
% inhibition apPOL 180' (DRC-1; concentration 10; 180'): 48.7066%
% inhibition Apo pol 10' (DRC-1; concentration 20; 10'): 37.7158%
% inhibition Apol 90' (DRC-1; concentration 20; 90'): 50.8732%
% inhibition apPOL 180' (DRC-1; concentration 20; 180'): 69.9557%
% inhibition Apo pol 10' (DRC-1; concentration 40; 10'): 58.5562%
% inhibition Apol 90' (DRC-1; concentration 40; 90'): 70.9348%
% inhibition apPOL 180' (DRC-1; concentration 40; 180'): 86.2262%
% inhibition Apo pol 10' (DRC-1; concentration 80 (unit not given); 10'): 73.935%
% inhibition Apol 90' (DRC-1; concentration 80; 90'): 78.9077%
% inhibition apPOL 180' (DRC-1; concentration 80; 180'): 90.2103%
% inhibition Apo pol 5' (DRC-2; 5'; concentration 10): 33%
% inhibition Apo pol 5' (DRC-2; 5'; concentration 80): 49%
% inhibition Apol 40' (DRC-2; 40'; concentration 10): 33%
% inhibition Apol 40' (DRC-2; 40'; concentration 20): 49%
% inhibition Apo pol 5' (DRC-2; concentration 2.5; 5'): 5%
% inhibition Apol 40' (DRC-2; concentration 2.5; 40'): 1.45%
% inhibition ApPOL 90' (DRC-2; concentration 2.5; 90'): -0.679%
% inhibition apPOL 180' (DRC-2; concentration 2.5; 180'): -6%
% inhibition Apo pol 5' (DRC-2; concentration 5; 5'): 12%
% inhibition Apol 40' (DRC-2; concentration 5; 40'): 3.41%
% inhibition ApPOL 90' (DRC-2; concentration 5; 90'): -6.4%
% inhibition apPOL 180' (DRC-2; concentration 5; 180'): -80%
% inhibition Apo pol 5' (DRC-2; concentration 10; 5'): 33%
% inhibition Apol 40' (DRC-2; concentration 10; 40'): 33%
% inhibition ApPOL 90' (DRC-2; concentration 10; 90'): 30%
% inhibition apPOL 180' (DRC-2; concentration 10; 180'): 17%
% inhibition Apo pol 5' (DRC-2; concentration 20; 5'): 46%
% inhibition Apol 40' (DRC-2; concentration 20; 40'): 49%
% inhibition ApPOL 90' (DRC-2; concentration 20; 90'): 45%
% inhibition apPOL 180' (DRC-2; concentration 20; 180'): 31%
% inhibition Apo pol 5' (DRC-2; concentration 40; 5'): 52%
% inhibition Apol 40' (DRC-2; concentration 40; 40'): 58%
% inhibition ApPOL 90' (DRC-2; concentration 40; 90'): 56%
% inhibition apPOL 180' (DRC-2; concentration 40; 180'): 47%
% inhibition Apo pol 5' (DRC-2; concentration 80; 5'): 49%
% inhibition Apol 40' (DRC-2; concentration 80; 40'): 51%
% inhibition ApPOL 90' (DRC-2; concentration 80; 90'): 48%
% inhibition apPOL 180' (DRC-2; concentration 80; 180'): 43%
DNA Pol [2]: 29
DNA Pol (primary screen value; head prints only 'DNA Pol'; 90 min, 10 µM): 29

COc1ccc(C=C2Oc3c(ccc4c3CN(c3ccc5c(c3)OCO5)CO4)C2=O)cc1OC [KU0199426]
% inhibition Apo pol 10' (DRC-1; 10'; concentration 2.5): 6.7092%
% inhibition Apo pol 10' (DRC-1; 10'; concentration 5): 10.8011%
% inhibition Apo pol 10' (DRC-1; 10'; concentration 10): 30.1784%
% inhibition Apo pol 10' (DRC-1; 10'; concentration 20): 49.962%
% inhibition Apo pol 10' (DRC-1; 10'; concentration 40): 63.2111%
% inhibition Apo pol 10' (DRC-1; 10'; concentration 80): 69.0086%
% inhibition Apol 90' (DRC-1; 90'; concentration 2.5): 9.888%
% inhibition Apol 90' (DRC-1; 90'; concentration 5): 17.5134%
% inhibition Apol 90' (DRC-1; 90'; concentration 10): 37.0525%
% inhibition Apol 90' (DRC-1; 90'; concentration 20): 55.1818%
% inhibition Apol 90' (DRC-1; 90'; concentration 40): 69.2799%
% inhibition Apol 90' (DRC-1; 90'; concentration 80): 72.5355%
% inhibition apPOL 180' (DRC-1; 180'; concentration 2.5): 14.753%
% inhibition apPOL 180' (DRC-1; 180'; concentration 5): 23.9693%
% inhibition apPOL 180' (DRC-1; 180'; concentration 10): 43.333%
% inhibition apPOL 180' (DRC-1; 180'; concentration 20): 61.4424%
% inhibition apPOL 180' (DRC-1; 180'; concentration 40): 79.6981%
% inhibition apPOL 180' (DRC-1; 180'; concentration 80): 86.1468%
% inhibition Apo pol 5' (DRC-2; 5'; concentration 2.5): 6.46%
% inhibition Apo pol 5' (DRC-2; 5'; concentration 5): 7.39%
% inhibition Apo pol 5' (DRC-2; 5'; concentration 10): 27%
% inhibition Apo pol 5' (DRC-2; 5'; concentration 20): 45%
% inhibition Apo pol 5' (DRC-2; 5'; concentration 40): 42%
% inhibition Apo pol 5' (DRC-2; 5'; concentration 80): 45%
% inhibition Apol 40' (DRC-2; 40'; concentration 2.5): 6%
% inhibition Apol 40' (DRC-2; 40'; concentration 5): -2.71%
% inhibition Apol 40' (DRC-2; 40'; concentration 10): 30%
% inhibition Apol 40' (DRC-2; 40'; concentration 20): 63%
% inhibition Apol 40' (DRC-2; 40'; concentration 40): 43%
% inhibition Apol 40' (DRC-2; 40'; concentration 80): 44%
% inhibition ApPOL 90' (DRC-2; 90'; concentration 2.5): 4.67%
% inhibition ApPOL 90' (DRC-2; 90'; concentration 5): -12%
% inhibition ApPOL 90' (DRC-2; 90'; concentration 10): 27%
% inhibition ApPOL 90' (DRC-2; 90'; concentration 20): 69%
% inhibition ApPOL 90' (DRC-2; 90'; concentration 40): 41%
% inhibition ApPOL 90' (DRC-2; 90'; concentration 80): 43%
% inhibition apPOL 180' (DRC-2; 180'; concentration 2.5): -0.788%
% inhibition apPOL 180' (DRC-2; 180'; concentration 5): -86%
% inhibition apPOL 180' (DRC-2; 180'; concentration 10): 16%
% inhibition apPOL 180' (DRC-2; 180'; concentration 20): 76%
% inhibition apPOL 180' (DRC-2; 180'; concentration 40): 34%
% inhibition apPOL 180' (DRC-2; 180'; concentration 80): 39%
% inhibition Apo pol 5' (conc. 10; 5'; DRC-2): 27%
% inhibition ApPOL 90' (conc. 10; 90'; DRC-2): 27%
% inhibition Apo pol 5' (conc. 20; 5'; DRC-2): 45%
% inhibition Apol 40' (conc. 40; 40'; DRC-2): 43%
% inhibition Apo pol 5' (conc. 80; 5'; DRC-2): 45%
% inhibition ApPOL 90' (conc. 80; 90'; DRC-2): 43%
DNA Pol [1]: 28
DNA Pol [2]: 28
